# Assay results as given in patent publication US20230277483A1, “COMPOSITIONS AND METHODS TO TREAT INFLAMMATION” (University of Iowa Research Foundation, priority 2022, published 2023).
# Experiments:
# [1] = system: human monocyte-derived macrophages (MDM) using THP-1 cells; test: Proinflammatory cytokines after Pg-LPS challenge (qRT-PCR, ELISA); assay type: cell-based
# Description: Sg metabolites modulate proinflammatory cytokines in human periodontal associated cells in vitro. Sg were cultured in a total of 40 ml DMEM for 24 hrs. After 200 μl of Sg suspension reached 0.2 at OD600 value in a 96-well plate, the Sg metabolites were collected by centrifugation at 3000 g for 10 min and then filtered through a 0.22 μm filter. No toxicity of Sg metabolites was detected using an MTT assay on primary human bone marrow mesenchymal stromal cells (BMSCs) and primary human gingival fibroblasts (HGF) (data no shown). The modulation of Sg metabolites on inflammatory cytokines was tested using human monocyte-derived macrophages (MDM) and HGF. The MDM were generated by inducing a human macrophage cell line (THP-1) using PMA at 10 ng/ml. The MDM at 2×10^6 cells/per well and HGF at 2×10^4 cells/per well were cultured in 24-well plates using DMEM with 10% FBS and 1% PS. The Sg metabolites at 1 and 5% v/v were added and incubated for 24 hrs before challenging with Pg-LPS at 100 ng/ml.
# Human monocyte-derived macrophages (MDM) using THP-1 cells and HGF were cultured in a 24-well plate with DMEM and challenged with Pg-LPS at 100 ng/ml.
# In addition, freshly isolated epidydimal white adipose tissues (eWAT) from mice on a HFD for 16 weeks were minced and cultured in 24-well plates and treated with HCA at 0.5 and 1.0 μM in DMEM/F-12 containing 10% cosmic calf serum (CCS) and 1% penicillin-streptomycin (basal growth media, BGM). […] These preliminary data are strong evidence that Sg metabolites have the potential to modulate host inflammatory responses and attenuate inflammation.
# HCA promotes proliferation of health related bacteria and inhibits proliferation and attachment of periodontopathogenic bacteria. Promoting the growth of health-related commensal bacteria while inhibiting proliferation and attachment of pathogenic bacteria may be effective at preventing or treating periodontal inflammation. To determine if HCA has an effect on the growth properties of commensal bacteria and periodontopathogens, HCA at different concentrations was added to aerobic culture of S. mitis and S. oralis and anaerobic culture of T. denticola as described in our published manuscript (see detail in Shu et al, Journal of Periodontology, 2022). FIGS. 18A-C summarize the functions of HCA on the proliferation of specific commensal and pathogenic bacteria. […] Furthermore, the function of HCA on P. gingivalis attachment, a key parameter of adhesion and biofilm formation by periodontopathogenic bacteria, was investigated. […] Attachment measurements of P. gingivalis were performed based on our published studies (see detail in Shu et al, Journal of Periodontology, 2022). […] To test the biocompatibility and anti-inflammatory properties of HCA, human monocyte-derived macrophages (MDM) and gingival fibroblasts (HGF) were prepared as described in our previous studies. The cells were then treated with HCA from 0.1 to 50 μM. No toxicity was observed after treatment with different concentrations of HCA in either cell type using an MTT assay (FIGS. 19A and B, left column). The anti-inflammatory function of HCA on MDM and HGF after exposure to P. gingivalis lipopolysaccharide (PG-LPS) was investigated. […] HCA mitigates inflammation and affects the composition of microbiomes in vivo. Recent studies investigated whether HCA modulates periodontal inflammation using a mouse model. To induce periodontal inflammation, a total of 1 μl Pg-LPS at 10 μg/μl was directly injected twice a week into the interdental region between maxillary molars of C57BL/6J mice using a Hamilton1700 series syringe according to our previously published studies. 100 μl of HCA at 0.5 μM was administrated I.P. three time a week. […] It was also tested whether HCA affects the composition of the microbiome in vivo. For this purpose, high fat diet-induced obese (DIO) mice (The Jackson Laboratory) received I.P, administration of 100 μl of HCA at 0.2 and 0.5 μM three times a week for 3 weeks. […]
# [2] = system: Human MDM; test: Anti-inflammatory miR expression after Pg-LPS challenge; assay type: cell-based
# Description: FIGS. 11A-11B. Sg metabolites upregulate anti-inflammatory miRs in human macrophages and HGF. A-B: Relative transcript changes of miR-200c, 146a, and 21 in HGF (A) and human MDM (B) treated with AICAR, MA, HCA, and HPLA 24 hours after Pg-LPS challenge; performed in duplicate.
# Human MDM was cultured in a 24-well plate and treated with HCA at different concentrations and Pg-LPS at 100 ng/mi for 24 hrs. […] (All data are presented as means±SEM. *: p<0.05 vs untreated, ANOVA).
structure (smiles),measurement,setting,value
"O=C(O)CCCCCO [HCA, 6-hydroxycaproic acid]","transcripts of IL-1β, IL-6, and IL-8","[1]; HCA at 0.1 μM, 6 hours following PG-LPS challenge at 0.1 μg/mL",significantly downregulated
same,protein levels of IL-6 and IL-8,"[1]; HCA at 0.1 μM, supernatant, after 24 hrs",significantly reduced
same,"transcripts of IL-1β, 6, and 8","[1]; HCA at 0.1 and 1.0 μM, Pg-LPS at 100 ng/ml, after 6 hrs",significantly downregulated
same,proinflammatory cytokines (IL-6 transcript and IL-6 protein in supernatants),[1]; at 0.1 μg after Pg-LPS challenge,modulate
same,"anti-inflammatory miRs (miR-200c, 146a, and 21)",[2]; 24 hours after Pg-LPS challenge,upregulate
same,miR-200c expression,"[2]; HCA at 10 μM, Pg-LPS at 100 ng/ml for 24 hrs",significantly upregulated
